Values of other authors in US9095555B2, “Cannabinoid formulations” (FULL SPECTRUM LABORATORIES LIMITED, priority 2011, dated 2015).

Columns and labels:
[1] = prolonged contact with air, oxidation to cannabinol (CBN)

In the case of CCCCCc1cc(O)c2c(c1)OC(C)(C)[C@@H]1CCC(C)=C[C@@H]21 [Dronabinol, Δ^9-tetrahydrocannabinol], the Oxidation stability [1] is listed as “prone to oxidation”, the “Onset of therapeutic potency” value (after oral administration) is listed as 0.5 to 1 h and the “Amount reaching the blood stream by absorption through the digestive system” value (oral) is listed as 10-20 % of the administered dose. For the same molecule, the “Peak therapeutic effect lasting” value (post administration, oral) was 2 to 4 h.
